± gives the expanded uncertainty stated by the source.
Assay: xn = mol fraction of the nth substance listed
Conditions: 101 kPa, Liquid; for speed of sound: Sing-around technique in a fixed-path interferometer

CCCCCCCCCC [decane] + CCCCO
Conditions | mass density, 298.15 K [kg/m3] | mass density, 303.15 K [kg/m3] | mass density, 308.15 K [kg/m3] | speed of sound, 298.15 K [m/s] | speed of sound, 303.15 K [m/s] | speed of sound, 308.15 K [m/s] | viscosity, 298.15 K [mPa·s]
x2 = 0 | 726.806 ± 0.93 | 723.042 ± 0.94 | 719.23 ± 0.95 | 1234.8 ± 1.2 | 1215.2 ± 1.2 | 1195.6 ± 1.2 | 0.852 ± 0.012
x2 = 0.0678 | 728.769 ± 0.93 | 724.903 ± 0.94 | 721.031 ± 0.94 | 1230.4 ± 1.2 | 1210.6 ± 1.2 | 1191.9 ± 1.2 | 0.845 ± 0.012
x2 = 0.1105 | 730.259 ± 0.92 | 726.415 ± 0.93 | 722.511 ± 0.94 | 1228.8 ± 1.2 | 1209.1 ± 1.2 | 1189.4 ± 1.2 | 0.855 ± 0.012
x2 = 0.1614 | 732.194 ± 0.92 | 728.365 ± 0.93 | 724.437 ± 0.94 | 1227.3 ± 1.2 | 1207.6 ± 1.2 | 1187.9 ± 1.2 | 0.868 ± 0.012
x2 = 0.2372 | 735.44 ± 0.91 | 731.639 ± 0.92 | 727.679 ± 0.93 | 1225.4 ± 1.2 | 1206.1 ± 1.2 | 1185.5 ± 1.2 | 0.895 ± 0.013
x2 = 0.3068 | 738.779 ± 0.91 | 734.994 ± 0.92 | 731.004 ± 0.92 | 1224.1 ± 1.2 | 1204.5 ± 1.2 | 1184.6 ± 1.2 | 0.931 ± 0.013
x2 = 0.4278 | 745.484 ± 0.89 | 741.679 ± 0.9 | 737.66 ± 0.91 | 1222.9 ± 1.2 | 1203.7 ± 1.2 | 1183.8 ± 1.2 | 1.019 ± 0.014
x2 = 0.5071 | 750.606 ± 0.88 | 746.798 ± 0.89 | 742.769 ± 0.9 | 1222.8 ± 1.2 | 1203.8 ± 1.2 | 1184.3 ± 1.2 | 1.102 ± 0.015
x2 = 0.5547 | 754.019 ± 0.88 | 750.194 ± 0.88 | 746.151 ± 0.89 | 1222.9 ± 1.2 | 1203.9 ± 1.2 | 1184.8 ± 1.2 | 1.164 ± 0.015
x2 = 0.6068 | 758.098 ± 0.87 | 754.237 ± 0.88 | 750.219 ± 0.88 | 1223.4 ± 1.2 | 1204.5 ± 1.2 | 1185.6 ± 1.2 | 1.244 ± 0.016
x2 = 0.7032 | 766.65 ± 0.85 | 762.82 ± 0.86 | 758.774 ± 0.87 | 1224.9 ± 1.2 | 1206.3 ± 1.2 | 1187.6 ± 1.2 | 1.432 ± 0.018
x2 = 0.8036 | 777.321 ± 0.83 | 773.625 ± 0.84 | 769.593 ± 0.84 | 1227.9 ± 1.2 | 1210.2 ± 1.2 | 1191.3 ± 1.2 | 1.685 ± 0.021
x2 = 0.8498 | 782.998 ± 0.82 | 779.309 ± 0.82 | 775.279 ± 0.83 | 1229.9 ± 1.2 | 1212.4 ± 1.2 | 1194 ± 1.2 | 1.843 ± 0.023
x2 = 0.9015 | 790.035 ± 0.8 | 786.406 ± 0.81 | 782.421 ± 0.82 | 1232.8 ± 1.2 | 1215.7 ± 1.2 | 1197.9 ± 1.2 | 2.047 ± 0.026
x2 = 0.95 | 797.464 ± 0.79 | 794.041 ± 0.79 | 790.078 ± 0.8 | 1236.2 ± 1.2 | 1219.9 ± 1.2 | 1203.1 ± 1.2 | 2.277 ± 0.028

CCCCCC [hexane] + CCCCO
Conditions | mass density, 298.15 K [kg/m3] | mass density, 303.15 K [kg/m3] | mass density, 308.15 K [kg/m3] | speed of sound, 298.15 K [m/s] | speed of sound, 303.15 K [m/s] | speed of sound, 308.15 K [m/s] | viscosity, 298.15 K [mPa·s]
x2 = 0 | 655.072 ± 1.1 | 650.369 ± 1.1 | 645.767 ± 1.1 | 1077.8 ± 1.2 | 1055.2 ± 1.1 | 1032.9 ± 1.1 | 0.313 ± 0.008
x2 = 0.0507 | 660.196 ± 1.1 | 655.432 ± 1.1 | 650.791 ± 1.1 | 1077.6 ± 1.2 | 1054.9 ± 1.1 | 1032.7 ± 1.1 | 0.323 ± 0.008
x2 = 0.101 | 665.602 ± 1.1 | 660.733 ± 1.1 | 656.143 ± 1.1 | 1079.4 ± 1.2 | 1056.8 ± 1.1 | 1034.5 ± 1.1 | 0.338 ± 0.008
x2 = 0.1524 | 671.434 ± 1 | 666.54 ± 1.1 | 661.908 ± 1.1 | 1082.5 ± 1.2 | 1059.9 ± 1.2 | 1037.6 ± 1.1 | 0.356 ± 0.008
x2 = 0.2574 | 684.29 ± 1 | 679.54 ± 1 | 674.857 ± 1 | 1091.7 ± 1.2 | 1069.1 ± 1.2 | 1046.8 ± 1.1 | 0.409 ± 0.008
x2 = 0.379 | 700.46 ± 0.99 | 696.019 ± 1 | 691.525 ± 1 | 1106.3 ± 1.2 | 1083.7 ± 1.2 | 1062 ± 1.2 | 0.505 ± 0.009
x2 = 0.4125 | 705.163 ± 0.98 | 700.869 ± 0.99 | 696.345 ± 1 | 1111.1 ± 1.2 | 1088.5 ± 1.2 | 1066.7 ± 1.2 | 0.547 ± 0.01
x2 = 0.4502 | 710.564 ± 0.97 | 706.47 ± 0.98 | 701.99 ± 0.98 | 1116.7 ± 1.2 | 1094.1 ± 1.2 | 1072.3 ± 1.2 | 0.587 ± 0.01
x2 = 0.5121 | 719.663 ± 0.95 | 715.869 ± 0.96 | 711.606 ± 0.97 | 1126.5 ± 1.2 | 1103.9 ± 1.2 | 1082.5 ± 1.2 | 0.679 ± 0.011
x2 = 0.6005 | 733.301 ± 0.92 | 730.025 ± 0.93 | 725.938 ± 0.94 | 1141.9 ± 1.2 | 1120.8 ± 1.2 | 1099.2 ± 1.2 | 0.854 ± 0.012
x2 = 0.7004 | 749.66 ± 0.89 | 746.763 ± 0.89 | 742.943 ± 0.9 | 1162.2 ± 1.2 | 1141.1 ± 1.2 | 1120.6 ± 1.2 | 1.11 ± 0.015
x2 = 0.8202 | 770.812 ± 0.84 | 767.985 ± 0.85 | 764.319 ± 0.85 | 1190.9 ± 1.2 | 1171.5 ± 1.2 | 1151.5 ± 1.2 | 1.541 ± 0.02
x2 = 0.8523 | 776.78 ± 0.83 | 773.953 ± 0.83 | 770.292 ± 0.84 | 1199 ± 1.2 | 1179.9 ± 1.2 | 1160.3 ± 1.2 | 1.685 ± 0.021
x2 = 0.8957 | 785.079 ± 0.81 | 782.252 ± 0.82 | 778.547 ± 0.83 | 1210.5 ± 1.2 | 1192.1 ± 1.2 | 1172.9 ± 1.2 | 1.901 ± 0.024
x2 = 0.9476 | 795.298 ± 0.79 | 792.462 ± 0.8 | 788.743 ± 0.81 | 1225.1 ± 1.2 | 1207.9 ± 1.2 | 1189.6 ± 1.2 | 2.209 ± 0.028

CCCCCCCC [octane] + CCCCO
Conditions | mass density, 298.15 K [kg/m3] | mass density, 303.15 K [kg/m3] | mass density, 308.15 K [kg/m3] | speed of sound, 298.15 K [m/s] | speed of sound, 303.15 K [m/s] | speed of sound, 308.15 K [m/s] | viscosity, 298.15 K [mPa·s]
x2 = 0 | 698.58 ± 0.99 | 694.497 ± 1 | 690.416 ± 1 | 1172.7 ± 1.2 | 1152.1 ± 1.2 | 1131.7 ± 1.2 | 0.518 ± 0.009
x2 = 0.0563 | 701.448 ± 0.98 | 697.299 ± 0.99 | 693.192 ± 1 | 1169.8 ± 1.2 | 1149.2 ± 1.2 | 1128.6 ± 1.2 | 0.525 ± 0.009
x2 = 0.1091 | 704.623 ± 0.98 | 700.473 ± 0.99 | 696.337 ± 0.99 | 1169.4 ± 1.2 | 1148.8 ± 1.2 | 1128.2 ± 1.2 | 0.54 ± 0.009
x2 = 0.1579 | 707.716 ± 0.97 | 703.646 ± 0.98 | 699.455 ± 0.99 | 1169.4 ± 1.2 | 1149 ± 1.2 | 1128.1 ± 1.2 | 0.55 ± 0.01
x2 = 0.2245 | 712.309 ± 0.96 | 708.268 ± 0.97 | 704.085 ± 0.98 | 1170.1 ± 1.2 | 1149.5 ± 1.2 | 1129.2 ± 1.2 | 0.585 ± 0.01
x2 = 0.3117 | 718.911 ± 0.95 | 714.997 ± 0.96 | 710.775 ± 0.96 | 1172.1 ± 1.2 | 1151.8 ± 1.2 | 1131.4 ± 1.2 | 0.636 ± 0.01
x2 = 0.4013 | 726.41 ± 0.93 | 722.577 ± 0.94 | 718.357 ± 0.95 | 1175.4 ± 1.2 | 1155.4 ± 1.2 | 1135.6 ± 1.2 | 0.708 ± 0.011
x2 = 0.4519 | 731.021 ± 0.92 | 727.253 ± 0.93 | 723.057 ± 0.94 | 1177.8 ± 1.2 | 1158.1 ± 1.2 | 1138 ± 1.2 | 0.762 ± 0.011
x2 = 0.5106 | 736.716 ± 0.91 | 733.019 ± 0.92 | 728.779 ± 0.93 | 1181.2 ± 1.2 | 1161.7 ± 1.2 | 1141.9 ± 1.2 | 0.837 ± 0.012
x2 = 0.6032 | 746.6 ± 0.89 | 742.919 ± 0.9 | 738.734 ± 0.91 | 1187.9 ± 1.2 | 1169.1 ± 1.2 | 1149.6 ± 1.2 | 0.992 ± 0.014
x2 = 0.7087 | 759.397 ± 0.86 | 755.747 ± 0.87 | 751.584 ± 0.88 | 1197.5 ± 1.2 | 1179.4 ± 1.2 | 1160.3 ± 1.2 | 1.232 ± 0.016
x2 = 0.8063 | 772.907 ± 0.84 | 769.349 ± 0.84 | 765.239 ± 0.85 | 1208.9 ± 1.2 | 1191.2 ± 1.2 | 1172.8 ± 1.2 | 1.539 ± 0.02
x2 = 0.8492 | 779.452 ± 0.82 | 775.973 ± 0.83 | 771.885 ± 0.84 | 1214.9 ± 1.2 | 1197.5 ± 1.2 | 1179.4 ± 1.2 | 1.711 ± 0.022
x2 = 0.909 | 789.203 ± 0.8 | 786.026 ± 0.81 | 781.895 ± 0.82 | 1223.7 ± 1.2 | 1207.2 ± 1.2 | 1189.3 ± 1.2 | 1.991 ± 0.025
x2 = 0.956 | 797.537 ± 0.79 | 794.495 ± 0.79 | 790.449 ± 0.8 | 1231.9 ± 1.2 | 1215.5 ± 1.2 | 1198.8 ± 1.2 | 2.262 ± 0.028

From the NIST ThermoML archive (doi:10.1016/j.jct.2007.05.016)
